Measurements taken from patent publication US20220175768A1, “FGFR TYROSINE KINASE INHIBITORS FOR THE TREATMENT OF UROTHELIAL CARCINOMA” (Janssen Pharmaceutica NV, priority 2019, published 2022).

[1] = 6 mg continuous, regimen 2 (n = 78)
[2] = 8 mg continuous, Regimen 3 (n = 99)
[3] = 8 mg continuous, selected regimen 3 (n = 99)

COc1cc(OC)cc(N(CCNC(C)C)c2ccc3ncc(-c4cnn(C)c4)nc3c2)c1 [erdafitinib, N-(3,5-dimethoxy-phenyl)-N′-(1-methylethyl)-N-[3-(1-methyl-1H-pyrazol-4-yl)quinoxalin-6-yl]ethane-1,2-diamine]
29 (37) no. (%): Treatment-related adverse event: Diarrhea, Any grade [1]
49 (63) no. (%): Treatment-related adverse event: Hyperphosphatemia, Any grade [1]
4 (5) no. (%): Treatment-related adverse event: Asthenia, Grade 2 [1] | Treatment-related adverse event: Asthenia, Grade ≥3 [1] | Treatment-related adverse event: Dysgeusia, Grade 2 [1] | Treatment-related adverse event: Hand-foot syndrome, Grade 1 [1] | Treatment-related adverse event: Nausea, Grade 1 [1]
33 (42) no. (%): Treatment-related adverse event: Stomatitis, Any grade [1]
8 (10) no. (%): Treatment-related adverse event: Dry skin, Grade 1 [1] | Treatment-related adverse event: Dry skin, Grade 2 [1] | Treatment-related adverse event: Hand-foot syndrome, Grade 2 [1] | Treatment-related adverse event: Hyperphosphatemia, Grade 2 [1] | Treatment-related adverse event: Onychomadesis, Any grade [1] | Treatment-related adverse event: Retinal detachment, Any grade [1]
0 no.: Treatment-related adverse event: Alopecia, Grade 3 (8 mg continuous (n = 99)) | Treatment-related adverse event: Decreased appetite, Grade 3 (8 mg continuous (n = 99)) | Treatment-related adverse event: Dry mouth, Grade 3 (8 mg continuous (n = 99)) | Treatment-related adverse event: Dry skin, Grade 3 (8 mg continuous (n = 99)) | Treatment-related adverse event: Lacrimation increased, Grade 3 (8 mg continuous (n = 99)) | Treatment-related adverse event: Vision blurred, Grade 3 (8 mg continuous (n = 99)) | Treatment-related adverse event: Weight decreased, Grade 3 (8 mg continuous (n = 99)) | Treatment-related adverse event of special interest or clinical importance: Arrhythmia-related events, Any grade [2] | Treatment-related adverse event of special interest or clinical importance: Arrhythmia-related events, Grade ≥3 [2]
18 (23) no. (%): Treatment-related adverse event: Decreased appetite, Any grade [1]
11 (14) no. (%): Treatment-related adverse event: Asthenia, Any grade [1] | Treatment-related adverse event: Paronychia, Any grade [1]
10 (13) no. (%): Treatment-related adverse event: Dysgeusia, Any grade [1] | Treatment-related adverse event: Paronychia, Grade 2 [1]
0 no. (%): Treatment-related adverse event: Conjunctivitis, Grade 2 [1] | Treatment-related adverse event: Conjunctivitis, Grade ≥3 [1] | Treatment-related adverse event: Diarrhea, Grade ≥3 [1] | Treatment-related adverse event: Dry skin, Grade ≥3 [1] | Treatment-related adverse event: Dysgeusia, Grade ≥3 [1] | Treatment-related adverse event: Hand-foot syndrome, Grade ≥3 [1] | Treatment-related adverse event: Hyperphosphatemia, Grade ≥3 [1] | Treatment-related adverse event: Lacrimation increased, Grade ≥3 [1] | Treatment-related adverse event: Nausea, Grade ≥3 [1] | Treatment-related adverse event: Onychomadesis, Grade ≥3 [1] | Treatment-related adverse event: Paronychia, Grade ≥3 [1] | Treatment-related adverse event: Retinal detachment, Grade ≥3 [1]
5 (6) no. (%): Treatment-related adverse event: Fatigue, Grade 1 [1] | Treatment-related adverse event: Onycholysis, Grade ≥3 [1] | Treatment-related adverse event: Retinal detachment, Grade 1 [1] | Treatment-related adverse event: Vision blurred, Any grade [1]
16 (21) no. (%): Treatment-related adverse event: Diarrhea, Grade 1 [1] | Treatment-related adverse event: Dry skin, Any grade [1]
2 (3) no. (%): Treatment-related adverse event: Conjunctivitis, Any grade [1] | Treatment-related adverse event: Conjunctivitis, Grade 1 [1] | Treatment-related adverse event: Decreased appetite, Grade ≥3 [1] | Treatment-related adverse event: Dry mouth, Grade ≥3 [1] | Treatment-related adverse event: Nausea, Grade 2 [1] | Treatment-related adverse event: Onycholysis, Grade 1 [1] | Treatment-related adverse event: Onychomadesis, Grade 1 [1]
5 (5) no. (%): Patients with Abdominal pain, Grade 1 [3]
3 (4) no. (%): Treatment-related adverse event: Asthenia, Grade 1 [1] | Treatment-related adverse event: Lacrimation increased, Grade 2 [1] | Treatment-related adverse event: Retinal detachment, Grade 2 [1] | Treatment-related adverse event: Vision blurred, Grade 1 [1]
2 (2) no. (%): Patients with Abdominal pain, Grade 2 [3]
7 (9) no. (%): Treatment-related adverse event: Decreased appetite, Grade 1 [1] | Treatment-related adverse event: Stomatitis, Grade ≥3 [1]
41 (53) no. (%): Treatment-related adverse event: Hyperphosphatemia, Grade 1 [1]
23 (30) no. (%): Treatment-related adverse event: Dry mouth, Grade 1 [1]
8 (8) no. (%): Patients with Abdominal pain, Any grade [3]
6 (8) no. (%): Treatment-related adverse event: Dry mouth, Grade 2 [1] | Treatment-related adverse event: Dysgeusia, Grade 1 [1] | Treatment-related adverse event: Fatigue, Grade 2 [1] | Treatment-related adverse event: Nausea, Any grade [1] | Treatment-related adverse event: Onycholysis, Grade 2 [1] | Treatment-related adverse event: Onychomadesis, Grade 2 [1]
17 (17) no. (%): Patients with Alanine aminotransferase increased, Any grade [3]
31 (40) no. (%): Treatment-related adverse event: Dry mouth, Any grade [1]
12 (15) no. (%): Treatment-related adverse event: Fatigue, Any grade [1] | Treatment-related adverse event: Hand-foot syndrome, Any grade [1] | Treatment-related adverse event: Lacrimation increased, Any grade [1]
9 (12) no. (%): Treatment-related adverse event: Decreased appetite, Grade 2 [1] | Treatment-related adverse event: Lacrimation increased, Grade 1 [1]
1 (1) no. (%): Treatment-related adverse event: Fatigue, Grade ≥3 [1] | Treatment-related adverse event: Paronychia, Grade 1 [1] | Treatment-related adverse event: Vision blurred, Grade 2 [1] | Treatment-related adverse event: Vision blurred, Grade ≥3 [1] | Patients with Abdominal pain, Grade ≥3 [3]
13 (17) no. (%): Treatment-related adverse event: Diarrhea, Grade 2 [1] | Treatment-related adverse event: Onycholysis, Any grade [1] | Treatment-related adverse event: Stomatitis, Grade 1 [1] | Treatment-related adverse event: Stomatitis, Grade 2 [1]
